“And” between values parts separate entries of the source, which are not always exact repeats. Equal entries are not always repeated. Where two headings read alike, the source gives them in different places.
Assays:
C1b domain of human PKCδ = target: T1, C1b domain of human PKCδ (Homo sapiens, UniProt Q05655); test: biochemical; type: binding; settings: 3H-PDBu competition
T1 construct: Genes encoding C1b domains of human PKCα, δ, ε, θ, and PKD1 (PKCμ) were synthesized; made in house; host or cells: E. coli BL21(DE3)
T1 sequence (Q05655 230-280 limits assumed): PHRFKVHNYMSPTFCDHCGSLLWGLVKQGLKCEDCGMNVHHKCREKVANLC
Protocol: (§1) Compounds described in this disclosure were tested for binding affinity to C1b domain of PKC isoforms. Compound binding affinity to C1b domain of PKC isoforms was derived from competitive binding assay using radioactive tracer ^3H-PDBu and recombinant GST-C1b or full-length of human PKC proteins based on modified procedures from Methods in Molecular Biology, vol.
(§2) Genes encoding C1b domains of human PKCα, δ, ε, θ, and PKD1 (PKCμ) were synthesized and inserted into pGEX-2TK or pGEX-4T1 vectors for expression and production of GST-C1b proteins in E. coli BL21(DE3) via IPTG induction. The target proteins were purified by glutathione sepharose 4B and followed by ion exchange chromatography if needed to achieve purity >70%. Aliquots of the purified proteins were stored at −80 degree for binding assay (storage buffer: 20 mM Tris pH 8.0, 200 mM NaCl, 10% glycerol, 1 mM DTT).
(§3) The plate was incubated at 37° C. on a shaker at 300 rpm for 10 minutes and then put on ice for 20 minutes. […] The bottom of the filter plate was sealed and 50 μL of MicroScint-20 (PerkinElmer) cocktail was added to each well. ^3H-PDBu trapped in each well was counted using PerkinElmer MicroBeta2 Reader. Data were analyzed using GraphPad Prism5 with the model “log(inhibitor) vs. response-variable slope” to fit the IC50, and then IC50 was transformed to Ki using Cheng-Prusoff equation: Ki=IC50/(1+added radio ligand/Kd). Kd is the binding affinity of each protein preparation to ^3H-PDBu, determined experimentally.

C1b domain of human PKCε = target: T2, C1b domain of human PKCε (Homo sapiens, UniProt Q02156); test: biochemical; type: binding; settings: 3H-PDBu competition
T2 construct: Genes encoding C1b domains of human PKCα, δ, ε, θ, and PKD1 (PKCμ) were synthesized; made in house; host or cells: E. coli BL21(DE3)
T2 sequence (Q02156 242-292 limits assumed): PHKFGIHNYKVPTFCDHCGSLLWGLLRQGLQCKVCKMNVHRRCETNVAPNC
Protocol: as §1, §2, §3

C1b domain of human PKCθ = target: T3, C1b domain of human PKCθ (Homo sapiens, UniProt Q04759); test: biochemical; type: binding; settings: 3H-PDBu competition
T3 construct: Genes encoding C1b domains of human PKCα, δ, ε, θ, and PKD1 (PKCμ) were synthesized; made in house; host or cells: E. coli BL21(DE3)
T3 sequence (Q04759 231-281 limits assumed): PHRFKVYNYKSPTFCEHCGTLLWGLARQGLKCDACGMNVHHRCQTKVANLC
Protocol: as §1, §2, §3

A549 cell line = test: Proliferation of A549 (CellTiter Glo); type: cell-based; settings: Homo sapiens, read-out: IC50 μM (A549 Cell Line)
Protocol: (§4) The diterpenoid compounds were tested in A549, a non-small cell lung cancer cell line harboring a K-Ras activating mutation. Briefly, A549 cells at a density of 1,000 cells/well were seeded in 96-well plates and incubated at 37° C. for 24 hours. A series of different concentrations of compound stocks (500×) were prepared by 3-fold serial dilution in DMSO. These compounds were further diluted in culture media and then added to cells so that the final DMSO concentration was not exceeding 0.25%. After 96 hours of incubation, 50 μL of CellTiter Glo reagent (Promega) was added to each well and luminescence was measured after 10 minutes using EnVision (PerkinElmer). Luminescence from cells treated with DMSO alone was set as Max and % of inhibition was calculated as follows: Inhibition %=(Max-Sample value)/Max×100. Data was analyzed using XL-fit software (ID Business Solutions Ltd.) and IC50, relative IC50, and % of top inhibition was calculated. Some of the compounds in this disclosure were very potent in blocking proliferation of A549 lung cancer cells at low nM range. In addition, potency of inhibiting A549 proliferation correlated well with its binding affinity to PKCs for this series of compounds. In other words, higher affinity binders had stronger inhibitory effects on A549 proliferation. This further support the notion that activation, rather than inhibition, of certain PKC isoforms is required to block proliferation of cancer cells, some of which may harbor K-Ras mutations. This is in sharp contrast to previous literature and common belief that inhibition of PKC is necessary to block cancer cell growth (Kang, 2014, New Journal of Science, 2014:1-36). Data presented here is in agreement with recent findings that many loss-of-function but not gain-of-function mutations of PKC isoforms have been identified in many human cancers (Antal et al., 2015, Cell, 160:489-502).

HL-60 (Leukemia) = test: Proliferation of HL-60; type: cell-based; settings: for IC50: Homo sapiens, HL-60, read-out: IC50 HL-60 (Leukemia)
Protocol: as §4
(§5) The compounds in this disclosure were tested for their potency in blocking proliferation of a few other cancer cells lines, including K-Ras mutant pancreatic cell lines Panc2.13 and KP-4, leukemia cell line HL-60, and lymphoma cell lines Namalwa and Mino. Similar procedures as in Example 67 were followed. Initial cell numbers seeded in 96-well plates were different for different cell lines: 3000 cells/well for Panc2.13; 800-1000 cells/well for KP-4; 5000 cells/well for HL-60; 5000-10000 cells/well for Namalwa and Mino. A ratio of (IC50 of K101)/(IC50 of compound) (data in parenthesis in Table 5) was used to normalize the compound potency from different assay batches to a common comparator K101.

Namalwa (Lymphoma) = test: Proliferation of Namalwa; type: cell-based; settings: for IC50: read-out: IC50 Namalwa (Lymphoma)
Protocol: as §4, §5

Mino (Lymphoma) = test: Proliferation of Mino; type: cell-based; settings: for IC50: Homo sapiens, MINO, read-out: IC50 Mino (Lymphoma)
Protocol: as §4, §5

[1] = tested on: NFκB-driven transcription in HeLa-NFκB luciferase reporter cell line; test: NFκB luciferase reporter assay; settings: Homo sapiens, HeLa, 16 h, read-out: NFκB-luc HeLa cells EC50 (μM)
CT26 tumors = test: CT26 tumor after single dose intratumoral treatment, H&E stain and CD31 IHC; type: in vivo, mouse; settings: for CD31 IHC (counts per mm^2) / H&E Necrotic tumor area (%): individual tumors
Protocol: Method. Each 6-8 weeks old female Balb/c mouse was implanted with 3×10^5 CT26 mouse colon cancer cells in one flank for tumor development. When the average tumor volume reached 95 mm^3, 21 mice were randomized into different groups and were treated via a single IT injection (20 uL) according to the group assignment (different dose and treatment duration) in the table below. Tumors were harvested at 1h, 7h, or 24h post IT injection, and then fixed and processed for paraffin embedding.
Paraffin blocks were sectioned into […] sections using Leica RM2235 microtome. One section was stained for Hematoxylin-Eosin (H&E) using Leica ST5020-CV5030 stainer integrated workstation according to the Manufacture's procedure. Photos were taken using Nikon DS-Ri2. Another section was processed for IHC staining with the CD31 antibody (BD, Cat #550274) at 1:10 dilution. The stained slides were scanned using Leica Aperio VERSA 8 and the images were analyzed using HALO image analysis software system (Indica Labs).

Panc2.13 (Pancreatic) = test: Proliferation of Panc2.13; type: cell-based
Protocol: as §4, §5

KP-4 (Pancreatic) = test: Proliferation of KP-4; type: cell-based; settings: 96 h; read-out: IC50 KP-4 (Pancreatic)
Protocol: as §4, §5

| SMILES | Ki (C1b domain of human PKCδ) [nM] | Ki (C1b domain of human PKCε) [nM] | Ki (C1b domain of human PKCθ) [nM] | IC50 (A549 cell line; A549, 96 h) [µM] | ratio (IC50 of K101)/(IC50 of compound) HL-60 (HL-60 (Leukemia)) | IC50 (HL-60 (Leukemia)) [nM] | ratio (IC50 of K101)/(IC50 of compound) Namalwa (Namalwa (Lymphoma)) | IC50 (Namalwa (Lymphoma)) [nM] | ratio (IC50 of K101)/(IC50 of compound) Mino (Mino (Lymphoma)) | IC50 (Mino (Lymphoma)) [nM] | EC50 [1] [µM] | also measured |
| --- | --- | --- | --- | --- | --- | --- | --- | --- | --- | --- | --- | --- |
| CC1=C[C@H]2[C@@]3(O)[C@H](C)C[C@]4(OC(=O)[C@H](N)CCCCCCCCc5ccccc5)[C@H]([C@@H]3C=C(CO)C[C@]2(O)C1=O)C4(C)C | 10 to 30 | 10 to 30 | 10 to 30 | 0.01 to 0.03 |  |  |  |  |  |  |  |  |
| CC1=C[C@H]2[C@@]3(O)[C@H](C)C[C@]4(OC(=O)CCC5CCCC5)[C@H]([C@@H]3C=C(CO)C[C@]2(O)C1=O)C4(C)C |  |  | 10 to 30 | 0.03 to 0.06 | 9.23 | 30 to 60 | 1.73 | 30 to 60 | 11 | 1 to 10 | 0.06 to 0.1 |  |
| CC1=C[C@H]2[C@@]3(O)[C@H](C)C[C@]4(OC(=O)[C@H](N)CCCCCCc5ccccc5)[C@H]([C@@H]3C=C(COC(=O)[C@@H](N)C(C)C)C[C@]2(O)C1=O)C4(C)C |  |  |  |  |  |  |  |  |  |  |  | IC50 (A549 cell line; A549, 96 hours, CellTiter Glo): 0.03 to 0.06 µM; CD31 IHC (counts per mm^2) (CT26 tumors; 47.2 μg single IT, 24 h): 163 counts per mm^2 and 111 counts per mm^2; H&E Necrotic tumor area (%) (CT26 tumors; 47.2 μg single IT, 24 h): 40% and 70%; tumors with reduction of CD31 density (CT26 tumors; 47.2 μg, 7h): 2 out of 3; CD31 IHC (counts per mm^2) (CT26 tumors; 141.6 μg single IT, 24 h): 176 counts per mm^2 and 29 counts per mm^2 and 72 counts per mm^2; H&E Necrotic tumor area (%) (CT26 tumors; 141.6 μg single IT, 24 h): 80% (2×) and 90%; CD31 IHC (counts per mm^2) (CT26 tumors; 472 μg single IT, 1 h): 577 counts per mm^2 and 457 counts per mm^2 and 463 counts per mm^2; H&E Necrotic tumor area (%) (CT26 tumors; 472 μg single IT, 1 h): 5% and 3% and 0%; CD31 IHC (counts per mm^2) (CT26 tumors; 472 μg single IT, 7 h): 188 counts per mm^2 and 536 counts per mm^2 and 179 counts per mm^2; H&E Necrotic tumor area (%) (CT26 tumors; 472 μg single IT, 7 h): 10% and 0% and 25%; CD31 IHC (counts per mm^2) (CT26 tumors; 472 μg single IT, 24 h): 155 counts per mm^2 and 187 counts per mm^2 and 118 counts per mm^2; H&E Necrotic tumor area (%) (CT26 tumors; 472 μg single IT, 24 h): 40% and 30% and 90%; massive cell death in tumors (CT26 tumors; all three doses, 24h): up to 90% |
| CC1=C[C@H]2[C@@]3(O)[C@H](C)C[C@]4(OC(=O)[C@@H](N)Cc5ccc(C(F)(F)F)cc5)[C@H]([C@@H]3C=C(CO)C[C@]2(O)C1=O)C4(C)C |  |  |  | 0.06 to 0.1 | 6.43 | 30 to 60 | 1.68 | 30 to 60 | 6.2 | 10 to 30 | 0.06 to 0.1 | ratio (IC50 of K101)/(IC50 of compound) Panc2.13 (Panc2.13 (Pancreatic)): 6.79; IC50 (Panc2.13 (Pancreatic); read-out: IC50 Panc2.13 (Pancreatic)): 100 to 200 nM; IC50 (KP-4 (Pancreatic)): 100 to 600 nM |
| CC1=C[C@H]2[C@@]3(O)[C@H](C)C[C@]4(OC(=O)[C@H](N)C(C)(C)c5ccc(C(F)(F)F)cc5)[C@H]([C@@H]3C=C(CO)C[C@]2(O)C1=O)C4(C)C | 10 to 30 | 10 to 30 | 10 to 30 | 0.2 to 0.6 | 2.75 | 100 to 200 | 0.49 | 100 to 200 | 3.88 | 10 to 30 | 0.1 to 0.2 |  |

Source: patent US20240197666A1, “DITERPENOID COMPOUNDS THAT ACT ON PROTEIN KINASE C (PKC)” (K-Gen Therapeutics, Inc., priority 2021, published 2024)
